Here are results for 2 compounds from ChEMBL document CHEMBL4507269, “Data for DCP probe BAY-386” (2021).

Data set [1] has as its target T1, Alpha-1D adrenergic receptor (Homo sapiens) (UniProt P25100).
T1 sequence (whole entry): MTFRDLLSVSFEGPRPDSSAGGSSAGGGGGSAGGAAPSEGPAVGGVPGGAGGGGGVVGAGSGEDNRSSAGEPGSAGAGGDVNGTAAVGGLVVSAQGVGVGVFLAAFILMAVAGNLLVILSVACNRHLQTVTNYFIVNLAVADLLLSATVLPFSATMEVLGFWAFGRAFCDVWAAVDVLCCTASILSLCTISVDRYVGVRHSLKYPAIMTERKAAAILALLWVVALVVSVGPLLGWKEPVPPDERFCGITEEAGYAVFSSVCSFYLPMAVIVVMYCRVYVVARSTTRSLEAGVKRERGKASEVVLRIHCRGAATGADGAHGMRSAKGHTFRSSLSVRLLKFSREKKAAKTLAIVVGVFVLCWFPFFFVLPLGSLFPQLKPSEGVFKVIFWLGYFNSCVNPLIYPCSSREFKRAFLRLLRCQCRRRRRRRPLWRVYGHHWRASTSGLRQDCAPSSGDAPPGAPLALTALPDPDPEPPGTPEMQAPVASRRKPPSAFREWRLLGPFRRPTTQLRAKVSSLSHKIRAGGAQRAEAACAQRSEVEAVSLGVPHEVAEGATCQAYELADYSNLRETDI
Description: Inhibition of Adrenergic alpha1D at 10 µM in the Eurofins-Panlabs radioligand binding assay (Eurofins_assay_203400). The settings on record: Compound concentration 10.0 uM.

Data set [2] has as its target Gamma-aminobutyric acid type B receptor subunit 1 (Homo sapiens) (UniProt Q9UBS5). Description: Inhibition of GABAB1A at compound concentration of 10.0 uM in the Eurofins-Panlabs radioligand binding assay (Eurofins_assay_228610). More on the design: ligand concentration 4 nM. The settings on record: Compound concentration 10.0 uM.
Data set [3] concerns the target Glutamate receptor ionotropic, kainate (Rattus norvegicus) (UniProt P22756+Q01812+P42260+P42264+Q63273). Description: Inhibition of Glutamate, Kainate at 10 µM in the Eurofins-Panlabs radioligand binding assay (Eurofins_assay_232700). To be noted: Compound concentration 10.0 uM.
For data set [4], the species on record is Mus musculus. Description: Inhibition of Interleukin IL-1 at 10 µM in the Eurofins-Panlabs radioligand binding assay (Eurofins_assay_243520). More on the design: ligand concentration 0.1 nM. To be noted: Compound concentration 10.0 uM.
In data set [5] the target is Cysteinyl leukotriene receptor 1 (Homo sapiens) (UniProt Q9Y271). Description: Inhibition of Leukotriene, Cysteinyl CysLT1 at 10 µM in the Eurofins-Panlabs radioligand binding assay (Eurofins_assay_250460). More on the design: ligand concentration 0.3 nM, non-specific ligand with concentration 0.3 µM Leukotriene D4, incubation time 30 min, incubation temperature 25 °C. To be noted: Compound concentration 10.0 uM.

In data set [6] the target is Platelet-activating factor receptor (Homo sapiens) (UniProt P25105). Description: Inhibition of Platelet Activating Factor (PAF) at 10 µM in the Eurofins-Panlabs radioligand binding assay (Eurofins_assay_265010). To be noted: Compound concentration 10.0 uM.
The target in data set [7] is Prostaglandin E2 receptor EP4 subtype (Homo sapiens) (UniProt P35408). Description: Inhibition of Prostanoid EP4 at 10 µM in the Eurofins-Panlabs radioligand binding assay (Eurofins_assay_268420). To be noted: Compound concentration 10.0 uM. More on the design: ligand concentration 1 nM.
The species named for data set [8] is Oryctolagus cuniculus. Description: Inhibition of Purinergic P2X at 10 µM in the Eurofins-Panlabs radioligand binding assay (Eurofins_assay_268700). It counts as protein assay. The settings on record: Compound concentration 10.0 uM.
Data set [9] deals with Sigma non-opioid intracellular receptor 1 (Homo sapiens) (UniProt Q99720). Description: Inhibition of Sigma 1 at 10 µM in the Eurofins-Panlabs radioligand binding assay (Eurofins_assay_278110). The settings on record: Compound concentration 10.0 uM. More on the design: ligand concentration 8 nM.
Data set [10] shares this target. Description: Sigma 1 Eurofins-Panlabs radioligand binding assay. More on the design: ligand concentration 8 nM. The settings on record: Compound concentration 10.0 uM.
Data set [11] addresses voltage-gated sodium channel, site 2 (Rattus norvegicus, UniProt F1LQQ7+O08562+O88420+O88457+P04774+P04775+P08104+P15389+P15390+Q62968). Description: Inhibition of Sodium Channel, Site 2 at 10 µM in the Eurofins-Panlabs radioligand binding assay (Eurofins_assay_279510). The settings on record: male, Wistar, rat whole brain (except cerebellum) membranes, probe [3H] Batrachotoxinin, compound concentration 10 uM. The class given is protein assay. More on the design: ligand concentration 5 nM, non-specific ligand with concentration 100 µM Veratridine, incubation time 60 min, incubation temperature 37 °C.

The target of data set [12] is B2 bradykinin receptor (Homo sapiens) (UniProt P30411). Description: Bradykinin B2 Eurofins-Panlabs radioligand binding assay. To be noted: Compound concentration 10.0 uM.
Data set [13] deals with Platelet. Description: Inhibition of platelet aggregation (human plasma, ADP, Collagen). It counts as cell-based.
The target of data set [14] is Histamine H3 receptor (Homo sapiens) (UniProt Q9Y5N1). Description: Histamine H3 Eurofins-Panlabs radioligand binding assay. The settings on record: Compound concentration 10.0 uM.
Data set [15] addresses 5-hydroxytryptamine receptor 5A (Homo sapiens) (UniProt P47898). The settings on record: Compound concentration 10.0 uM.
In data set [16] the target is Histamine H2 receptor (Homo sapiens) (UniProt P25021). The settings on record: Compound concentration 10.0 uM.
Data set [17] has as its target Sigma non-opioid intracellular receptor 1 (Homo sapiens) (UniProt Q99720). To be noted: Compound concentration 10.0 uM.
For data set [18], the target named is Adenosine receptor A1 (Homo sapiens) (UniProt P30542). The settings on record: Compound concentration 10.0 uM.
In data set [19] the target is Beta-2 adrenergic receptor (Homo sapiens) (UniProt P07550). To be noted: Compound concentration 10.0 uM.
For data set [20], the target named is D(3) dopamine receptor (Homo sapiens) (UniProt P35462). To be noted: Compound concentration 10.0 uM.
Data set [21] has as its target GABA-A receptor; anion channel (Rattus norvegicus) (UniProt O09028+P15431+P18506+P18508+P19969+P20236+P23574+P23576+P28471+P28473+P30191+P62813+P63079+P63138+Q91ZM7+Q9ES14). To be noted: Compound concentration 10.0 uM.
For data set [22], the target named is Histamine H2 receptor (Homo sapiens) (UniProt P25021). The settings on record: Compound concentration 10.0 uM. This is another data set of the same source.
The target of data set [23] is Mu-type opioid receptor (Homo sapiens) (UniProt P35372). The settings on record: Compound concentration 10.0 uM.
Data set [24] deals with Purinergic P2Y (Rattus norvegicus) (UniProt O35811+Q9EPX4+P49651+Q63371+P41232+O35881+Q6GUG4). The settings on record: Compound concentration 10.0 uM.
For data set [25], the target named is Sodium-dependent serotonin transporter (Homo sapiens) (UniProt P31645). To be noted: Compound concentration 10.0 uM.
The target in data set [26] is Kappa-type opioid receptor (Homo sapiens) (UniProt P41145). Description: kappa (KOP) (h) Eurofins-Cerep Cellular and Nuclear Receptor Functional Assays. To be noted: Compound concentration 10.0 uM.
Data set [27] deals with Beta-1 adrenergic receptor (Homo sapiens) (UniProt P08588). To be noted: Compound concentration 10.0 uM.
Beta-1 adrenergic receptor (Homo sapiens), sequence (P08588 whole entry, looked up): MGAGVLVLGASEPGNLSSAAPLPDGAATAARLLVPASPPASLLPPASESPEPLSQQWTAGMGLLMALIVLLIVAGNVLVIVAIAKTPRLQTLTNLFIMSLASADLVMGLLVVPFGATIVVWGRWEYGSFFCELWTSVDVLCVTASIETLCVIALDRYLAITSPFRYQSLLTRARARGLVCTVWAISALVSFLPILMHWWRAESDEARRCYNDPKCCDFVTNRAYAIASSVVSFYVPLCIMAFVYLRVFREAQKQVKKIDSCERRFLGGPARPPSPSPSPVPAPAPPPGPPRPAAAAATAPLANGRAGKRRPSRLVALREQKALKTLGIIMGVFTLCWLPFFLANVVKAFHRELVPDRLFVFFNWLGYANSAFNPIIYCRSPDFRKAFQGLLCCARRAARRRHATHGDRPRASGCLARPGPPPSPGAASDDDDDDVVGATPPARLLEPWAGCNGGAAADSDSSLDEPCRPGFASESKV

Sigma non-opioid intracellular receptor 1 (Homo sapiens), sequence (Q99720 whole entry): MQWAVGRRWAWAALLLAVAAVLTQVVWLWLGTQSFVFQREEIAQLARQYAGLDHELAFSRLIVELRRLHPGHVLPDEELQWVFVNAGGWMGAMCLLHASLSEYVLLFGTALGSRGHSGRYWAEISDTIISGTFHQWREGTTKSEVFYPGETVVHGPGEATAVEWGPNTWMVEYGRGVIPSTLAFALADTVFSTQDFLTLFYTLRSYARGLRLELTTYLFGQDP
Histamine H2 receptor (Homo sapiens), sequence (P25021 whole entry): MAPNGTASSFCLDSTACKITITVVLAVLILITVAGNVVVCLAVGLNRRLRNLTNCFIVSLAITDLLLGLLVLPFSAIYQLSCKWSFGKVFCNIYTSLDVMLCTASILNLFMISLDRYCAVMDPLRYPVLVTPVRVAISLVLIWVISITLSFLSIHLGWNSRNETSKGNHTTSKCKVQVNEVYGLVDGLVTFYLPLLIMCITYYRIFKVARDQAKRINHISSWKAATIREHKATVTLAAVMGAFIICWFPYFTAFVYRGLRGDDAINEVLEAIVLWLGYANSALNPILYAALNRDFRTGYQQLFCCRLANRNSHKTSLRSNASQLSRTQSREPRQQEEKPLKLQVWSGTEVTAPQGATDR
Kappa-type opioid receptor (Homo sapiens), sequence (P41145 whole entry): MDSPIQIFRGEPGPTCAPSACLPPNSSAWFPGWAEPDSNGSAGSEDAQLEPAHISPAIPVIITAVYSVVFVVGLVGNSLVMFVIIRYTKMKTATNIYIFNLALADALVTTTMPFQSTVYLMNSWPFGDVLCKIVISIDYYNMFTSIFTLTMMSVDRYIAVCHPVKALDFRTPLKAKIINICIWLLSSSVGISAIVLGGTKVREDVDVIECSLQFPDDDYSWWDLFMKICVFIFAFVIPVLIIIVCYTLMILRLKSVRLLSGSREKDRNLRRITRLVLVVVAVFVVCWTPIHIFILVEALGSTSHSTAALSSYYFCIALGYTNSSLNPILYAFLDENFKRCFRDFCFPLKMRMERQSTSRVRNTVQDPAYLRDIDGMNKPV
D(3) dopamine receptor (Homo sapiens), sequence (P35462 whole entry): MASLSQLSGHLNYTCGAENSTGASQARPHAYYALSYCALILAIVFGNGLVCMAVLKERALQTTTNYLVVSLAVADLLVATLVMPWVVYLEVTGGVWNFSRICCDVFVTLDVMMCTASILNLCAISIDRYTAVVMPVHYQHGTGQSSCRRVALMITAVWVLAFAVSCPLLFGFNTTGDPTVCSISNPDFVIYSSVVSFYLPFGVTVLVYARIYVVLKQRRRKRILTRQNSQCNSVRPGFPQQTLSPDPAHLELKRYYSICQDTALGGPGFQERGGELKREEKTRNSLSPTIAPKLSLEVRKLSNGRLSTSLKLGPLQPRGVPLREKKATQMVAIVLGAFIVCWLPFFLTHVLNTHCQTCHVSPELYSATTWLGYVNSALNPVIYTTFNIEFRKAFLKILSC
Prostaglandin E2 receptor EP4 subtype (Homo sapiens), sequence (P35408 whole entry): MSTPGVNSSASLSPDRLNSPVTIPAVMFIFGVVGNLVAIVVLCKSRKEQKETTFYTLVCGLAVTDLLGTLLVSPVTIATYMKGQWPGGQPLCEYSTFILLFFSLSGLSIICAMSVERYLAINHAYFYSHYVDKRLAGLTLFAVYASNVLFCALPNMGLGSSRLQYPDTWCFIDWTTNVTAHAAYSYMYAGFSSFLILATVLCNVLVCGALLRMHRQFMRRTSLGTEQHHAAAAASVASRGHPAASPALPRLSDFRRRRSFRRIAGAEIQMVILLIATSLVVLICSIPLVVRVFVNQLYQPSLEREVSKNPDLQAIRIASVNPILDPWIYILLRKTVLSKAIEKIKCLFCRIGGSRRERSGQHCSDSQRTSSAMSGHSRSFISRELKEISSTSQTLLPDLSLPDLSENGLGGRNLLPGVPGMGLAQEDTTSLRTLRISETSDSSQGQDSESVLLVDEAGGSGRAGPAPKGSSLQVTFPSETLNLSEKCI
Adenosine receptor A1 (Homo sapiens), sequence (P30542 whole entry): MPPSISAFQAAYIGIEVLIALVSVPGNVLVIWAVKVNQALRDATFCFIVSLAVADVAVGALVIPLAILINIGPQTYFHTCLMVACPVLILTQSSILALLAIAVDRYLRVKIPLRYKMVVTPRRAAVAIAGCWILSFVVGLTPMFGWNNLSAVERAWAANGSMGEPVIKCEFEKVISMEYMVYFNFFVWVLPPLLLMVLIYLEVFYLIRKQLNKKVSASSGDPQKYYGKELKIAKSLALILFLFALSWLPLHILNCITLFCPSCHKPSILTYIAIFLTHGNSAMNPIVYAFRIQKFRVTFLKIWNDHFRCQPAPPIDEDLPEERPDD
Histamine H3 receptor (Homo sapiens), sequence (Q9Y5N1 whole entry): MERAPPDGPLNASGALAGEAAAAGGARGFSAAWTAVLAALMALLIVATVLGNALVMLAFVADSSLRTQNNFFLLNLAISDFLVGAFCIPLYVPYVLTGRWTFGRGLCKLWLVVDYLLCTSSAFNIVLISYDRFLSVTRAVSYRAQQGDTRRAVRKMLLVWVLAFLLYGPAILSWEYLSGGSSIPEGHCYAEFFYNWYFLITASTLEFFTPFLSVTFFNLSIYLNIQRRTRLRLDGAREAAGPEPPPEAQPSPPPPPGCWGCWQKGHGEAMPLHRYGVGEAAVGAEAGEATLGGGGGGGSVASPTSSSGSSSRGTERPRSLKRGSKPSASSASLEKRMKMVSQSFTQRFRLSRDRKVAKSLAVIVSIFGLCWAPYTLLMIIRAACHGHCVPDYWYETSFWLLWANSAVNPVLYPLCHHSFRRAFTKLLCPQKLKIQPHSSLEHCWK
Platelet-activating factor receptor (Homo sapiens), sequence (P25105 whole entry): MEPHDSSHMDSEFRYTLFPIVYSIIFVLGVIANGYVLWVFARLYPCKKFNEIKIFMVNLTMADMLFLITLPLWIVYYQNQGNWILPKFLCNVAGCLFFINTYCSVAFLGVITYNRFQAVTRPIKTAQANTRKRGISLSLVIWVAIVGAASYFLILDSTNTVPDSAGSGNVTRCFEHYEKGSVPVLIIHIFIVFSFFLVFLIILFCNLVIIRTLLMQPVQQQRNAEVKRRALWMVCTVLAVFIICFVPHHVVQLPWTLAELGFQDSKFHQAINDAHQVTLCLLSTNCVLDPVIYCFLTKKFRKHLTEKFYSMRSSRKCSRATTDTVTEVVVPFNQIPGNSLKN
Beta-2 adrenergic receptor (Homo sapiens), sequence (P07550 whole entry, looked up): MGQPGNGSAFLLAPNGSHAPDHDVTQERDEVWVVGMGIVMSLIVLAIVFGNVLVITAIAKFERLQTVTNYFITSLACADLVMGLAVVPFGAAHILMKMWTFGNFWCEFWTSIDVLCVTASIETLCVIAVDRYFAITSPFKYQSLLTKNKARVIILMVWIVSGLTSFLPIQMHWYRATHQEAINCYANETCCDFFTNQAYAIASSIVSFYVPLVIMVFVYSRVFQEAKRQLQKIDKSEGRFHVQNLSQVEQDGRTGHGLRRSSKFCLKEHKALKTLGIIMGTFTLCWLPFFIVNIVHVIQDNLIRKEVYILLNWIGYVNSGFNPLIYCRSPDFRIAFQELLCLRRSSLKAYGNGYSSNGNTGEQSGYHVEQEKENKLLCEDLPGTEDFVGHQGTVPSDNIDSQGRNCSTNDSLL
Cysteinyl leukotriene receptor 1 (Homo sapiens), sequence (Q9Y271 whole entry): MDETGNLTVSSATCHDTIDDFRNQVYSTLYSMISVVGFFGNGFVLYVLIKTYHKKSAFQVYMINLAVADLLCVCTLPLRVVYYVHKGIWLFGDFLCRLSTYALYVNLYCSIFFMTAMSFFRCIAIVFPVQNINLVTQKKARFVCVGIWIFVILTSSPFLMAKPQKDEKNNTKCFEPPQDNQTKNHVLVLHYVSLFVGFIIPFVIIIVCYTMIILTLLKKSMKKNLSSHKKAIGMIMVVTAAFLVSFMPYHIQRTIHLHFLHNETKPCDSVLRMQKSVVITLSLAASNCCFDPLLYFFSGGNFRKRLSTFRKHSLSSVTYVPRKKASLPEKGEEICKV
5-hydroxytryptamine receptor 5A (Homo sapiens), sequence (P47898 whole entry): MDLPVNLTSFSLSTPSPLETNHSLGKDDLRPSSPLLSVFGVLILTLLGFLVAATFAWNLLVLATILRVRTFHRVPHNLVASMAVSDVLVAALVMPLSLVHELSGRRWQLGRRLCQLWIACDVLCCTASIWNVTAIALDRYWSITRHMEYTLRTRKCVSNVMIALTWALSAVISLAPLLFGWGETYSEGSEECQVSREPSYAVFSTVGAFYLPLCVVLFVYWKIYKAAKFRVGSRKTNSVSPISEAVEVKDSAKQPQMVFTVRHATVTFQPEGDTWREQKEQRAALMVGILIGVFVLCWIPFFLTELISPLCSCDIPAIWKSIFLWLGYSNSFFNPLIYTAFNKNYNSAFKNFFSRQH

With `O=C(N1CCS(=O)(=O)CC1)N1C[C@H](c2ccc(OC(F)(F)F)cc2)C[C@H](c2nc(C3CC3)no2)C1` [BAY-386], the inhibition is -4% in data set [1]; 10% in data set [2]; 15% in data set [3]; 16% in [4]; 1% in data set [5]; 0% in [6]. Also, the inhibition is 1% in data set [7]; 9% in data set [8]; 16% in data set [9]; 12% in [10]; 11% in [12]; -3% in [14]. In addition, the inhibition was 10% in data set [15]; 9.25% in [16]; 40.3% in data set [17]; -6% in [18]; 0% in [19]; -1% in data set [20]. For the same compound, the inhibition is -3% in data set [21]; -3% in data set [22]; 6% in data set [23]; 12% in data set [24]; 3% in [25]. The inhibition at 60 min, 10 µM in [11] turned out to be 55%. Also, the IC50 in [13] is listed as > 100 µM (not active).
On to `Cc1noc([C@H]2C[C@@H](c3ccc(C(F)(F)F)cc3)CN(C(=O)N3CCS(=O)(=O)C3)C2)n1` [BAY-448], for which, in data set [26], the % Inhibition of Control Agonist Response (Mean n=2) was 1.3% and the % of Control Agonist Response (Mean n=2) turned out to be 9%. For the same compound, the inhibition in data set [27] is 3.66%.

What is called inhibition is the change of the read-out against control, counted positive when it falls. Usually IC50 stands for the concentration needed to halve the response being measured. Low readings indicate greater potency in that assay, high ones weaker potency in that assay.
